Experiment [1] has as its target T1, Nuclear receptor ROR-beta (Homo sapiens, UniProt Q92753).
T1 sequence (Q92753 whole entry): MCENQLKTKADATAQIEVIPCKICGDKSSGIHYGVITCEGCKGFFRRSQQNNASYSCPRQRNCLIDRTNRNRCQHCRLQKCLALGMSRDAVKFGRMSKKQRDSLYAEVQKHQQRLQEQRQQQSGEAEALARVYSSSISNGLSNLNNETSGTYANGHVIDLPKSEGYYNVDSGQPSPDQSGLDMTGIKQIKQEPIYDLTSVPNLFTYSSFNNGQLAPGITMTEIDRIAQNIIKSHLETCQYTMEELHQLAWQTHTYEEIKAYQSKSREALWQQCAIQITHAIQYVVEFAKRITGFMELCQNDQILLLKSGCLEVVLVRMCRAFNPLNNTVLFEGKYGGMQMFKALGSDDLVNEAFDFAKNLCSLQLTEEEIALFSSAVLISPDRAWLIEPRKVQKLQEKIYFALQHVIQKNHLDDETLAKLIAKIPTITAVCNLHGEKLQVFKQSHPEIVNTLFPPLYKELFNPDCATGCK
The experiment is described as follows: Inverse agonist activity at human GAL4-fused RORb expressed in HEK293 cells after 5 hrs by luciferase reporter gene based transcriptional assay. Type of experiment: cell-based.

In experiment [2] the target is T2, Nuclear receptor ROR-alpha (Homo sapiens, UniProt P35398).
T2 sequence (P35398 whole entry): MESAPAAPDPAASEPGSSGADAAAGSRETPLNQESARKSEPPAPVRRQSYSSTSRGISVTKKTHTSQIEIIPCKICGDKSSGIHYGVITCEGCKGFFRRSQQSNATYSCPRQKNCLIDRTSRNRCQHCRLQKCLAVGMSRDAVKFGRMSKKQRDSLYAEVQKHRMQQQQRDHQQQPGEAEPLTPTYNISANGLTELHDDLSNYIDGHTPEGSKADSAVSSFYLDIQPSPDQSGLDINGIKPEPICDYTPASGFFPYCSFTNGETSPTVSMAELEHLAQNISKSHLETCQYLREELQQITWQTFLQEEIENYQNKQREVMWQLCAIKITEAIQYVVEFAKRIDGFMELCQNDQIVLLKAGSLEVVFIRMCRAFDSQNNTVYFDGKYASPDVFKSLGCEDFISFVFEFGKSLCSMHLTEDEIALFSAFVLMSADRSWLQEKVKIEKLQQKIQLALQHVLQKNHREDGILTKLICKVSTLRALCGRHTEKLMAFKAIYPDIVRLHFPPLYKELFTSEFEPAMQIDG
The experiment in a line: Inverse agonist activity at human GAL4-fused RORa expressed in HEK293 cells after 5 hrs by luciferase reporter gene based transcriptional assay. Format: cell-based. (Reporter assays use an easily measured gene product as a stand-in for the process of interest.)

Experiment [3] concerns the target T3, Oxysterols receptor LXR-alpha (Homo sapiens, UniProt Q13133).
T3 sequence (Q13133 whole entry): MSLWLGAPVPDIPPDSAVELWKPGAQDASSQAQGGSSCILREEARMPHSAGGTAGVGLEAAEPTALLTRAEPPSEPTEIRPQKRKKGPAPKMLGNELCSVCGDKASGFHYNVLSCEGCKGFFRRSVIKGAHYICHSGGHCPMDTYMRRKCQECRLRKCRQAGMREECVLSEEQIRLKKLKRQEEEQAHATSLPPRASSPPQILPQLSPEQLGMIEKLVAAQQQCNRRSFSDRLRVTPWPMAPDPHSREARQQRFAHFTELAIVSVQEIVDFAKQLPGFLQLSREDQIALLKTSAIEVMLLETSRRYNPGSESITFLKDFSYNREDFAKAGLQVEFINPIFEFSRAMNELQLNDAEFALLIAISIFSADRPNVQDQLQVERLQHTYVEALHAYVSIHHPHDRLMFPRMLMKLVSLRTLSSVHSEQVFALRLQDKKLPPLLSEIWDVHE
The experiment is described as follows: Inverse agonist activity at human GAL4-fused LXRalpha expressed in HEK293 cells assessed as inhibition of T0901317-induced transcriptional activity after 5 hrs by luciferase reporter gene assay. Type of experiment: cell-based.

In experiment [4] the target is T4, Oxysterols receptor LXR-beta (Homo sapiens, UniProt P55055).
T4 sequence (P55055 whole entry): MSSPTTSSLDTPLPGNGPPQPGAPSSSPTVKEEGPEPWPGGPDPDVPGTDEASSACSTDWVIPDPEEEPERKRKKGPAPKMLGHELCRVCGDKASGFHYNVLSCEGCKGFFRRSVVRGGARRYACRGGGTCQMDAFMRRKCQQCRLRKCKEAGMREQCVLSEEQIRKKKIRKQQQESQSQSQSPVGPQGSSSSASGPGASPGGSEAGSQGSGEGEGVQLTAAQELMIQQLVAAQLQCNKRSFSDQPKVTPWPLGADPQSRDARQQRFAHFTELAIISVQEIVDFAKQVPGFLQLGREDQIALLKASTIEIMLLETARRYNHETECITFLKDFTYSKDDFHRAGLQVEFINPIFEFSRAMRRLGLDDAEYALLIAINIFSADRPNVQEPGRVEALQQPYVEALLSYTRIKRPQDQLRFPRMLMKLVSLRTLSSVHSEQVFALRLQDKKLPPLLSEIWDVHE
The experiment is described as follows: Inverse agonist activity at human GAL4-fused LXRbeta expressed in HEK293 cells assessed as inhibition of T0901317-induced transcriptional activity after 5 hrs by luciferase reporter gene assay. Format: cell-based.

The target in experiment [5] is T5, Nuclear receptor ROR-gamma (Homo sapiens, UniProt P51449).
T5 sequence (P51449 whole entry): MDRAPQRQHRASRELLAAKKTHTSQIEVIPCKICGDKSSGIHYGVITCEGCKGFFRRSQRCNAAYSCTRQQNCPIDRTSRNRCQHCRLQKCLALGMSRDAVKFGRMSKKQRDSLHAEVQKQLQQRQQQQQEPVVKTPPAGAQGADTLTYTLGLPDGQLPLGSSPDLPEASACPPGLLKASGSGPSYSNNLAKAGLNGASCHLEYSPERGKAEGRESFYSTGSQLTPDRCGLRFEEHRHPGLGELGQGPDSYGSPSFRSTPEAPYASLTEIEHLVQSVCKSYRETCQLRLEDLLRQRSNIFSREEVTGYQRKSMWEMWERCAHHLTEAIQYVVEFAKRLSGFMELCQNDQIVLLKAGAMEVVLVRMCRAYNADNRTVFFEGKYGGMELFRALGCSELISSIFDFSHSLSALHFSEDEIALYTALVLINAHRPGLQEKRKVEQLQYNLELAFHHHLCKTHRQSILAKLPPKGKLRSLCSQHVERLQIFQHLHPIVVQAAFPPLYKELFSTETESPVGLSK
The experiment is described as follows: Displacement of [3H2]25-hydroxycholesterol from human RORc-LBD after 3 hrs by scintillation counting.

Experiment [6] has as its target T5, Nuclear receptor ROR-gamma. The experiment is described as follows: Inverse agonist activity at an N-terminal 6xHis-GST-tag human RORc-LBD assessed as inhibition of recruitment of the SRC1 co-activator peptide after 3 hrs by time-resolved FRET assay. Type of experiment: functional.

From ChEMBL document CHEMBL3259641, “Identification of tertiary sulfonamides as RORc inverse agonists” (Bioorg Med Chem Lett, 2014) come the findings set out here.

Usually EC50 stands for the concentration at which the effect is half-maximal. In the case of `CC(C)CN(Cc1ccc(-c2cccc(S(C)(=O)=O)c2)s1)S(=O)(=O)Cc1ccccc1`, the figures for the half-maximal effective concentration (EC50) in experiment [1] and in experiment [2] were 5 µM and 4.2 µM, respectively.

For `CC(C)CN(Cc1ccc(-c2ccc(S(C)(=O)=O)cc2)s1)S(=O)(=O)Cc1ccccc1`, the EC50 came to 2.2 µM in experiment [1], 2.8 µM in experiment [2], 3.7 µM in experiment [3] and 3.9 µM in experiment [4].

As a reminder, the IC50 is the concentration that inhibits the measured activity by half. Read a low IC50 as greater potency. `CC(C)CN(Cc1ccc(-c2ccc(C#N)nc2)s1)S(=O)(=O)Cc1ccccc1`: the concentration for half-maximal inhibition (IC50) in experiment [5] is more than 10 µM.

The compound `CC(C)CN(Cc1cnc(-c2ccc(S(C)(=O)=O)cc2)s1)S(=O)(=O)Cc1ccccc1` showed an IC50 in experiment [5] of more than 10 µM. Further, the EC50 in experiment [6] was more than 10 µM.

As to `CC(C)CN(Cc1cccc(-c2ccc(S(C)(=O)=O)cc2)c1)S(=O)(=O)Cc1ccccc1`, in experiment [5], the IC50 is more than 10 µM. Moreover, the EC50 in experiment [6] is more than 10 µM.

As for `CC(C)CN(Cc1ccc(-c2ccc(NS(C)(=O)=O)cc2)cc1)S(=O)(=O)Cc1ccccc1`, the EC50 amounted to 3.7 µM in experiment [1], 3.8 µM in experiment [2], 3.6 µM in experiment [3] and 3.8 µM in experiment [4].

With `CC(C)CN(Cc1ccc(-c2ccc(C(N)=O)cc2)cc1)S(=O)(=O)Cc1ccccc1`, the EC50 in experiment [1], in experiment [2], in experiment [3] and in experiment [4] was more than 10 µM throughout.
